Test results: PubChem BioAssay AID1996
In brackets after ≈: the same amount, converted by molar mass.

Settings: buffer; pH 7.4; 200.0 µM
Cc1ccc(CN(C)C2CCN(C)CC2)cc1 gave a solubility kinetic of 31.3 µg/mL (≈ 135 µM). Work on O=[N+]([O-])c1ccc(N2CCN(c3ccc(F)cc3)CC2)cc1 yielded a solubility kinetic of 0.3 µg/mL (≈ 0.996 µM). Compound COc1ccc(N2CCOCC2)c(NC(=O)c2cccnc2)c1 has a solubility kinetic of over 47 µg/mL. Work on O=C(c1c(F)cccc1F)N1CCCc2ccccc21 yielded a solubility kinetic of over 41 µg/mL. CN1CCN(c2nc3c(c(=O)n(C)c(=O)n3C)n2Cc2ccccc2F)CC1 gave a solubility kinetic of over 58 µg/mL. Compound CCCCN1C2=NC(c3ccccc3)CN2c2ccccc21.Cl (stereo unspecified) has a solubility kinetic of 44.1 µg/mL. Cc1cc(C)c(S(=O)(=O)NCc2cccnc2)cc1C showed a solubility kinetic of over 43.6 µg/mL. In the case of CCc1cc(SC#N)ccc1N, the solubility kinetic is reported as 20.7 µg/mL (≈ 116 µM). CCc1nc2ccccc2c(C(=O)Nc2cccc(C)c2)c1C showed a solubility kinetic of 2.2 µg/mL (≈ 7.23 µM). O=C(COC(=O)c1cnccn1)Nc1ccc(Cl)cn1 showed a solubility kinetic of over 43.9 µg/mL. For CCOC(=O)NC(=O)CSc1ccc(C)cc1C, the solubility kinetic was over 40.1 µg/mL. Compound CCOP(=O)(c1ccc(N(C)C)cc1)C(O)c1ccncc1 (stereo unspecified) has a solubility kinetic of over 48 µg/mL. For Cc1ccccc1CC(=O)NC1CCCCCC1, the solubility kinetic was 11.1 µg/mL (≈ 45.2 µM). CCOc1ncccc1C(=O)Nc1c(C)n(C)n(-c2ccccc2)c1=O gave a solubility kinetic of over 52.9 µg/mL. In the case of O=C(CN1C(=O)NC(CCc2ccccc2)C1=O)N1CCCCCC1 (stereo unspecified), the solubility kinetic is reported as over 51.5 µg/mL. Work on CN(C)S(=O)(=O)Nc1cccc(Br)c1 yielded a solubility kinetic of over 41.9 µg/mL. With Cc1onc(NC(=O)CSCC(=O)O)c1Br the solubility kinetic was over 46.4 µg/mL. In the case of CCCN1C(=O)c2ccccc2NC1c1ccc(O)c(OCC)c1 (stereo unspecified), the solubility kinetic is reported as over 49 µg/mL. For NC(=O)c1cc(-c2ccncc2)nc2ccc(Cl)cc12, the solubility kinetic was 37 µg/mL (≈ 130 µM). With COc1ccc(CCNC(=O)c2ccc3c(c2)OCO3)cc1 the solubility kinetic was 2.5 µg/mL (≈ 8.35 µM). Compound COc1ccc(C(=O)OCC(=O)NC2CCCC2)c(OC)c1 has a solubility kinetic of 44.8 µg/mL (≈ 146 µM). Compound CN(Cc1nc(-c2ccc(C(F)(F)F)cc2)no1)C1CCOCC1 has a solubility kinetic of 37.3 µg/mL (≈ 109 µM). With NC(=O)CN1C(=O)C(=O)N(Cc2ccc(F)cc2)C1=O the solubility kinetic was over 41.9 µg/mL. O=C(NCC(c1ccco1)N1CCOCC1)c1cccc(Cl)c1 (stereo unspecified) showed a solubility kinetic of over 50.2 µg/mL. Work on C=CCc1cc(C)ccc1OCCCn1ccnc1.O=C(O)C(=O)O yielded a solubility kinetic of 29.1 µg/mL. In the case of N#CCCN1CCN(S(=O)(=O)c2ccc3c(c2)CCC3)CC1, the solubility kinetic is reported as over 47.9 µg/mL. In the case of Cc1onc(-c2c(Cl)cccc2Cl)c1C(=O)O/N=C(\C#N)c1c(Cl)cccc1Cl, the solubility kinetic is reported as 62.9 µg/mL (≈ 134 µM). Cc1cc2sc3nc(=O)n(-c4ccccc4)c(=O)n3c2cc1C gave a solubility kinetic of 5.8 µg/mL (≈ 17.9 µM). Cc1ccc(C(=O)Nc2ncc([N+](=O)[O-])s2)cc1 showed a solubility kinetic of 27 µg/mL (≈ 103 µM). COC(=O)CNC(=O)COC(=O)/C=C/c1cccs1 showed a solubility kinetic of over 42.5 µg/mL. For O=c1c(Cc2c(F)cccc2Cl)c(O)ccn1C1CCCCCC1, the solubility kinetic was under 0.7 µg/mL. For Cc1cc(C)nc(SCC(=O)N2CCc3ccccc32)n1, the solubility kinetic was 3.4 µg/mL (≈ 11.4 µM). Cc1ccc(NC(=O)c2cncc(Br)c2)nc1 gave a solubility kinetic of 28.1 µg/mL (≈ 96.2 µM). O=C(O)Cc1csc(-c2ccc(F)cc2)n1 showed a solubility kinetic of 32.2 µg/mL (≈ 136 µM). Work on O=C1CSC(c2ccccc2)N1c1ccccc1F (stereo unspecified) yielded a solubility kinetic of 40.3 µg/mL (≈ 147 µM). CC(=O)NC1C(=O)N=C(SCC(=O)Nc2c(C)cccc2C)NC1=O (stereo unspecified) showed a solubility kinetic of over 54.4 µg/mL. For Cc1[nH]c2ccc(C(C)C)cc2c1CC(=O)O, the solubility kinetic was over 34.7 µg/mL. In the case of CNc1cc(Cl)nc(SC)n1, the solubility kinetic is reported as over 28.4 µg/mL. Compound Cc1ccc(NC(=S)NC(C)(C)C)c([N+](=O)[O-])c1 has a solubility kinetic of 8.2 µg/mL (≈ 30.7 µM). COc1ccc(NC(=O)CN(C)C(=O)CCc2ccccc2)cc1 showed a solubility kinetic of 40.7 µg/mL (≈ 125 µM). Cc1oc(S(=O)(=O)N2CCCC2)cc1C(=O)Nc1ccc(F)cc1 gave a solubility kinetic of 1.5 µg/mL (≈ 4.26 µM). Cc1ccccc1N1C(=O)CSC1=C(C#N)C#N gave a solubility kinetic of over 38.3 µg/mL. Work on CC1C(c2ccccc2)N(C)C(c2ccccc2)CC1(O)c1ccc(F)cc1 (stereo unspecified) yielded a solubility kinetic of 5.7 µg/mL (≈ 15.2 µM). With CC(OC(=O)Cc1ccc(Br)cc1)C(=O)NC1CCCC1 (stereo unspecified) the solubility kinetic was 48.7 µg/mL (≈ 137 µM). Work on O=C(COc1ccccc1)Nc1ccc2[nH]c(=O)[nH]c2c1 yielded a solubility kinetic of 36.9 µg/mL (≈ 130 µM). Compound COc1cc(/C=C/c2ccc3cccc(O)c3n2)ccc1O has a solubility kinetic of 4.8 µg/mL (≈ 16.4 µM). O=C(NCCO)/C(=C\c1ccco1)NC(=O)c1ccco1 gave a solubility kinetic of 35 µg/mL (≈ 121 µM). For O=C(COc1ccccc1Cl)NCCNC(=O)c1cccnc1, the solubility kinetic was over 50.1 µg/mL. Compound Cc1ccc(C)c(N2CCN(CCCc3ccccc3)CC2)c1 has a solubility kinetic of 4.6 µg/mL (≈ 14.9 µM). In the case of Cc1ccc(OCC(=O)NCCCNC(=O)c2ccccn2)cc1C, the solubility kinetic is reported as 45.4 µg/mL (≈ 133 µM). Compound N#Cc1ccc(/C=C/C(=O)c2ccc3c(c2)OCO3)cc1 has a solubility kinetic of 2.9 µg/mL (≈ 10.5 µM). Compound O=C1C(Cl)=C(N2CCCC2)C(=O)N1c1ccccc1F has a solubility kinetic of over 44.2 µg/mL. For CC1(C(=O)OCC(=O)NCc2ccc(Cl)cc2)CC1(Cl)Cl (stereo unspecified), the solubility kinetic was 52.5 µg/mL (≈ 150 µM). Work on COc1ccc(N=c2ssnc2Cl)cc1 yielded a solubility kinetic of 0.4 µg/mL (≈ 1.55 µM). Compound Cc1noc(C)c1COc1ccc(C(=O)NCc2cccs2)cc1 has a solubility kinetic of 16.5 µg/mL (≈ 48.2 µM). Work on CCN(CC)S(=O)(=O)c1ccc(Cl)nc1 yielded a solubility kinetic of 34.3 µg/mL (≈ 138 µM). N#Cc1ccccc1COC(=O)c1cc(=O)c2ccccc2o1 showed a solubility kinetic of 16.7 µg/mL (≈ 54.7 µM). Compound N#CC(C(=S)Nc1ccccc1)c1nc2ccccc2[nH]1 (stereo unspecified) has a solubility kinetic of 0.9 µg/mL (≈ 3.08 µM). N/C(=N\OC(=O)c1cccc(Br)c1)c1ccccn1 gave a solubility kinetic of 3 µg/mL (≈ 9.37 µM). CC1CCC(NC(=O)c2cc(Cl)nc3ccccc23)CC1 (stereo unspecified) showed a solubility kinetic of 2.5 µg/mL (≈ 8.26 µM). In the case of Cc1ccc2c(c1)c1nc3ccccc3nc1n2C, the solubility kinetic is reported as under 0.2 µg/mL.
